Values after ≈ are worked out from the molar mass of the structure shown.
Key:
Falcipain 2 = target: T1, Falcipain 2 (Plasmodium falciparum, UniProt Q9N6S8); assay: Inhibition of Plasmodium falciparum falcipain-2 preincubated for 30 mins followed by Z-Leu-Arg-AMC substrate addition and measured up to 15 mins by spectrofluorometric analysis
T1 sequence (Q9N6S8 whole entry): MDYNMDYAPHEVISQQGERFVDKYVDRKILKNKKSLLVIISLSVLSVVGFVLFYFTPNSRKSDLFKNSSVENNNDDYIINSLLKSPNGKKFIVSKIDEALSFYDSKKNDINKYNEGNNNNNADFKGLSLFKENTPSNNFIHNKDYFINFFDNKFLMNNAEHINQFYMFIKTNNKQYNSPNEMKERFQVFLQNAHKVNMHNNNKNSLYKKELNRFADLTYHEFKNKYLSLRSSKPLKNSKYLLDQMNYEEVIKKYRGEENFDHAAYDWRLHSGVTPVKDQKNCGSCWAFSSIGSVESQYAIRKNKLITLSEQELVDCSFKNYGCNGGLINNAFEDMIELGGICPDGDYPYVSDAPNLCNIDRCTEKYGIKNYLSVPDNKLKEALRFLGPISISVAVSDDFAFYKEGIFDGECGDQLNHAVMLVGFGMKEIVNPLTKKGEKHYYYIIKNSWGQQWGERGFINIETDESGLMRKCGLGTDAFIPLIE

[1] = target: T2, Cysteine protease falcipain-3 (Plasmodium falciparum, UniProt Q9NAW4); assay: Inhibition of Plasmodium falciparum falcipain-3 preincubated for 30 mins followed by Z-Leu-Arg-AMC substrate addition and measured up to 15 mins by spectrofluorometric analysis
T2 sequence (Q9NAW4 whole entry): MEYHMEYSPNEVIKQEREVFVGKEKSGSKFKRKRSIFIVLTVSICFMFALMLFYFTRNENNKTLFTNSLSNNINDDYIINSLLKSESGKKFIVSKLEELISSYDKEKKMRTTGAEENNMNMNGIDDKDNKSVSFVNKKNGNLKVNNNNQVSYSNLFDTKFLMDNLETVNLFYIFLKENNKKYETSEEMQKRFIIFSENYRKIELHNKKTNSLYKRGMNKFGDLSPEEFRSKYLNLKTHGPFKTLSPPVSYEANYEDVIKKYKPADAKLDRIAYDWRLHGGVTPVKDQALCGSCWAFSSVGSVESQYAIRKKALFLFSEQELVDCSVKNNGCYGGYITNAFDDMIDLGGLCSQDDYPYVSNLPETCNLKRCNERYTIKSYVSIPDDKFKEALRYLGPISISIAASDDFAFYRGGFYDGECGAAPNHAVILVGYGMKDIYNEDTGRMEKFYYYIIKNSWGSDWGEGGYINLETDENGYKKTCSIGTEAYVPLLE

Plasmodium falciparum [2] = assay: Antimalarial activity against Plasmodium falciparum K2 infected in human erythrocytes assessed as parasitemia after 48 hrs by YOYO-1 staining-based flow cytometric analysis; assay type: functional, organism-based; conditions: K2, 48 h
[3] = system: Mycobacterium tuberculosis; assay: Antibacterial activity against Mycobacterium tuberculosis CNCTC My 331/88; assay type: functional
Mycobacterium kansasii [4] = assay: Antibacterial activity against Mycobacterium kansasii CNCTC My 235/80; assay type: functional
Mycobacterium avium = assay: Antibacterial activity against Mycobacterium avium CNCTC My 330/88; assay type: functional
Mycobacterium kansasii [5] = assay: Antibacterial activity against Mycobacterium kansasii isolate 6509/96; assay type: functional
Plasmodium falciparum [6] = assay: Antimalarial activity against ring-stage multidrug-resistant Plasmodium falciparum Dd2 preincubated for 6 hrs followed by compound wash and measured after 66 hrs by Giemsa-staining based light microscopic analysis; assay type: functional, organism-based
Plasmodium falciparum [7] = assay: Antimalarial activity against ring-stage chloroquine-susceptible Plasmodium falciparum 3D7 preincubated for 6 hrs followed by compound wash and measured after 66 hrs by Giemsa-staining based light microscopic analysis; assay type: functional, organism-based
CHO-K1 = assay: Cytotoxicity against CHOK1 cells after 24 hrs by MTT assay; assay type: cell-based; conditions: Cricetulus griseus, CHO-K1, 24 h
[8] = system: Mycobacterium tuberculosis; assay: Antibacterial activity against Mycobacterium tuberculosis H37Rv by MABA; assay type: functional
[9] = system: Mycobacterium tuberculosis; assay: Antibacterial activity against Mycobacterium tuberculosis H37Rv by resazurin dye-based assay; assay type: functional

Row | Compound | IC50 (Falcipain 2) [µM] | IC50 [1] [µM] | IC50 (Plasmodium falciparum [2]) [µM] | IC50 (CHO-K1) [µg/mL] | MIC [8] [µg/mL] | further results
1 | COc1ccc(NC(=O)Cn2nnc(-c3ccccc3NC(=O)c3cc(OC)cc(OC)c3)n2)cc1 | 6.67 to 43.9 | 6.67 to 43.9 | > 10 | – | – | –
2 | Sc1nnnn1-c1ccccc1 | – | – | – | – | – | MIC [3]: 250 to 500 µg/mL (≈ 1400 to 2810 µM); MIC (Mycobacterium kansasii [4]): 250 to 500 µg/mL (≈ 1400 to 2810 µM); MIC (Mycobacterium avium): 250 to 500 µg/mL (≈ 1400 to 2810 µM); MIC (Mycobacterium kansasii [5]): 250 to 500 µg/mL (≈ 1400 to 2810 µM)
3 | C1C2CC3CC1CC(C2)C31OOC2(CCC(Nc3nnn[nH]3)CC2)O1 (configuration not stated) | – | – | – | – | – | IC50 (Plasmodium falciparum [6]): 0.0025 µM; IC50 (Plasmodium falciparum [7]): 0.0028 µM
4 | COc1cc(-c2nnnn2S(=O)(=O)c2ccc([N+](=O)[O-])cc2)ccc1OCC(O)(Cn1cncn1)c1ccc(Cl)cc1Cl (configuration not stated) | – | – | – | > 150 | 1.56 to 12.5 (≈ 2.41 to 19.3 µM) | –
5 | COc1cc(-c2nnnn2S(=O)(=O)c2ccc(C)cc2)ccc1OCC(O)(Cn1cncn1)c1ccc(Cl)cc1Cl (configuration not stated) | – | – | – | > 150 | 1.56 to 12.5 (≈ 2.53 to 20.3 µM) | –
6 | O=C(Cn1nnc(-c2ccccc2)n1)NNC(=O)c1ccco1 | 6.67 to 43.9 | 6.67 to 43.9 | > 10 | – | – | –
7 | CCCCOc1ccc(-c2nnn(CC(=O)c3ccc(Cl)cc3)n2)cc1 | 6.67 to 43.9 | 6.67 to 43.9 | > 10 | – | – | –
8 | COc1cc(-c2nnnn2S(=O)(=O)c2ccccc2)ccc1OCC(O)(Cn1cncn1)c1ccc(Cl)cc1Cl (configuration not stated) | – | – | – | > 150 | 25 (≈ 41.5 µM) | –
9 | COc1ccc(S(=O)(=O)n2nnnc2-c2ccc(OCC(O)(Cn3cncn3)c3ccc(F)cc3F)c(OC)c2)cc1 (configuration not stated) | – | – | – | > 150 | 1.56 (≈ 2.6 µM) | –
10 | C[C@]12CC[C@@H]3c4ccc(OCCCCCCCSc5nnnn5-c5ccc(Cl)cc5)cc4CC[C@H]3[C@@H]1CCC2=O | – | – | – | – | – | MIC [3]: ≥ 500 µg/mL; MIC (Mycobacterium kansasii [4]): ≥ 500 µg/mL; MIC (Mycobacterium avium): ≥ 500 µg/mL; MIC (Mycobacterium kansasii [5]): ≥ 500 µg/mL
11 | O=C(Cn1nnnc1-c1ccccc1)NN1C(=O)C(Cl)C1c1ccc([N+](=O)[O-])cc1 (configuration not stated) | – | – | – | – | – | MIC [9]: > 6.25 µg/mL
12 | COc1ccc(-c2ccc(-c3nnn(CC(=O)c4ccccc4)n3)cc2)cc1 | 6.67 to 43.9 | 6.67 to 43.9 | > 10 | – | – | –
13 | COc1cc(-c2nnnn2S(=O)(=O)c2ccc(Br)s2)ccc1OCC(O)(Cn1cncn1)c1ccc(Cl)cc1Cl (configuration not stated) | – | – | – | > 150 | 1.56 (≈ 2.27 µM) | –
14 | COc1cc(-c2nnnn2S(=O)(=O)c2ccc(Br)s2)ccc1OCC(O)(Cn1cncn1)c1ccc(F)cc1F (configuration not stated) | – | – | – | > 150 | 1.56 (≈ 2.38 µM) | –
15 | COc1cc(-c2nnnn2S(=O)(=O)c2ccc(OC(F)(F)F)cc2)ccc1OCC(O)(Cn1cncn1)c1ccc(F)cc1F (configuration not stated) | – | – | – | > 150 | – | –
16 | Cc1cc(NC(=O)Cn2nnc(-c3ccccc3NC(=O)c3ccccc3F)n2)no1 | 6.67 to 43.9 | 6.67 to 43.9 | > 10 | – | – | –
17 | C[C@@H]1CC[C@H]2[C@@H](C)C(=O)O[C@@H]3O[C@@]4(C)CC[C@@H]1[C@]32OO4 [ARTEMISININ] | – | – | – | – | – | IC50 (Plasmodium falciparum [6]): 0.0025 µM; IC50 (Plasmodium falciparum [7]): 0.004 µM
18 | CC(C(=O)N1c2ccccc2CCc2ccccc21)n1nnc(-c2ccc(N3CCOCC3)cc2)n1 (configuration not stated) | 6.67 to 43.9 | 6.67 to 43.9 | > 10 | – | – | –
19 | Cc1ccc(-n2nnnc2SCCCCCCCOc2ccc3c(c2)CC[C@@H]2[C@@H]3CC[C@]3(C)C(=O)CC[C@@H]23)cc1 | – | – | – | – | – | MIC [3]: ≥ 500 µg/mL; MIC (Mycobacterium kansasii [4]): ≥ 500 µg/mL; MIC (Mycobacterium avium): ≥ 500 µg/mL; MIC (Mycobacterium kansasii [5]): ≥ 500 µg/mL
20 | COc1cc(-c2nnnn2S(=O)(=O)c2ccc(F)cc2)ccc1OCC(O)(Cn1cncn1)c1ccc(Cl)cc1Cl (configuration not stated) | – | – | – | > 150 | 1.56 to 12.5 (≈ 2.51 to 20.1 µM) | –
21 | CCCCOc1ccc(-c2nnn(CC(=O)Nc3c(C)ccc4ccccc34)n2)cc1 | 6.67 to 43.9 | 6.67 to 43.9 | > 10 | – | – | –
22 | Cn1nnc(NCC2CCC3(CC2)OOC2(O3)C3CC4CC(C3)CC2C4)n1 (configuration not stated) | – | – | – | – | – | IC50 (Plasmodium falciparum [6]): 0.0021 µM; IC50 (Plasmodium falciparum [7]): 0.0029 µM
23 | COc1ccc(C(=O)Nc2ccc(-c3nnn(CC(=O)Nc4cc(C)on4)n3)cc2)cc1 | 6.67 to 43.9 | 6.67 to 43.9 | > 10 | – | – | –
24 | O=C(Cn1nnnc1-c1ccccc1)NN1C(=O)C(Cl)C1c1ccc(Cl)cc1 (configuration not stated) | – | – | – | – | – | MIC [9]: > 6.25 µg/mL
25 | COc1cc(-c2nnnn2S(=O)(=O)c2ccc(Br)cc2)ccc1OCC(O)(Cn1cncn1)c1ccc(F)cc1F (configuration not stated) | – | – | – | > 150 | 3.12 (≈ 4.81 µM) | –
26 | Cc1ccc(C2C(Cl)C(=O)N2NC(=O)Cn2nnnc2-c2ccccc2)cc1 (configuration not stated) | – | – | – | – | – | MIC [9]: > 6.25 µg/mL

Reference: ChEMBL document CHEMBL4411274, “Recent advances of tetrazole derivatives as potential anti-tubercular and anti-malarial agents” (Eur J Med Chem, 2019)
